Patent US8450320B2, “Pyrrolopyrazinone inhibitors of kinases” (AbbVie Inc., priority 2010, dated 2013)
pKi: −log10 of the molar value.

Target: T1, Cdc7 (BEV coexpressed huCDC7/DBF4) (Homo sapiens, UniProt O00311)
T1 construct: made in house; host or cells: BEV (baculovirus expression vector)
Test: Cdc7 enzyme inhibition assay ([33P]-ATP, biotinylated peptide substrate, FlashPlate)
Assay type: biochemical
Settings: Ki generated from IC50 assuming ATP-competitive inhibition; 1 μM ATP, apparent ATP Km 0.7 μM
Experimental: This example describes the assays that may be used to identify compounds having kinase activity.
Cdc7 (BEV coexpressed huCDC7/DBF4) is prepared internally. Cdc7 assays are conducted as follows with final concentrations as listed. In 384-well v-bottom polypropylene plates, 6 μL compound (2% DMSO), is mixed with 6 μL of Cdc7 (2 ug/mL), and Jerini peptide substrate A-All (biotin-C6linker-TPSDSLIYDDGLS) (2 μM), followed by immediate initiation with 6 μL […] (1 μM, 20 mCi/μmol) using a reaction buffer comprising 25 mM HEPES, pH 7.5, 1 mM DTT, 10 mM MgCl2, 100 μM Na3VO4, 0.075 mg/ml Triton X-100. Reactions are quenched after 1 hr by the addition of 90 μL stop buffer (50 mM EDTA, 2M NaCl). 85 μL of the stopped reactions are transferred to 384-well streptavidin-coated plates (FlashPlate Plus, Perkin Elmer), incubated 30 minutes at room temperature and washed 3 times with 0.05% Tween-20/PBS using an ELX-405 automated plate washer (BioTek), and counted on a TopCount Scintillation Plate Reader (Packard). IC50 values are determined via non-linear regression fitting of enzyme inhibition data and corresponding Ki values are generated assuming ATP-competitive (equilibrium) inhibition and using the experimentally determined apparent ATP Km of 0.7 μM (as determined using the above assay condition, but varying ATP).
Table 1 depicts enzyme inhibition data (Ki) for exemplary compounds. In Table 1, “A” represents a Ki of less than 10 nM, “B” represents a Ki of between 10 nM and 100 nM, and “C” represents a Ki of greater than 100 nM.

T1 sequence (O00311 whole entry): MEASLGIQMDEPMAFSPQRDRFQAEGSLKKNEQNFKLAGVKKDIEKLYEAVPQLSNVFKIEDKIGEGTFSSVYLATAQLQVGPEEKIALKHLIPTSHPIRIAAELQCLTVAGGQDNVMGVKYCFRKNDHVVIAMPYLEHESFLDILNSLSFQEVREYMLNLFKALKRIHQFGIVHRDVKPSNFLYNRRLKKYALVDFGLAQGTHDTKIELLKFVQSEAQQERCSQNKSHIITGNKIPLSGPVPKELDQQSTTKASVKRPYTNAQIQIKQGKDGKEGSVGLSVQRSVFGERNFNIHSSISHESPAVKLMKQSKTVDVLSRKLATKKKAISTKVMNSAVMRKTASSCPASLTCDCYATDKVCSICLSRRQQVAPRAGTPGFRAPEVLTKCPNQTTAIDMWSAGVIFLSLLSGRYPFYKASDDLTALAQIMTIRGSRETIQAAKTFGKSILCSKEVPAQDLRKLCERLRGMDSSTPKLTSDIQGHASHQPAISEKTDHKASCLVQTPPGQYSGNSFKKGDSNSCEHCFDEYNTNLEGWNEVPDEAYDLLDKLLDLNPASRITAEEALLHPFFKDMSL
T1 sequence (Q9UBU7 whole entry partner): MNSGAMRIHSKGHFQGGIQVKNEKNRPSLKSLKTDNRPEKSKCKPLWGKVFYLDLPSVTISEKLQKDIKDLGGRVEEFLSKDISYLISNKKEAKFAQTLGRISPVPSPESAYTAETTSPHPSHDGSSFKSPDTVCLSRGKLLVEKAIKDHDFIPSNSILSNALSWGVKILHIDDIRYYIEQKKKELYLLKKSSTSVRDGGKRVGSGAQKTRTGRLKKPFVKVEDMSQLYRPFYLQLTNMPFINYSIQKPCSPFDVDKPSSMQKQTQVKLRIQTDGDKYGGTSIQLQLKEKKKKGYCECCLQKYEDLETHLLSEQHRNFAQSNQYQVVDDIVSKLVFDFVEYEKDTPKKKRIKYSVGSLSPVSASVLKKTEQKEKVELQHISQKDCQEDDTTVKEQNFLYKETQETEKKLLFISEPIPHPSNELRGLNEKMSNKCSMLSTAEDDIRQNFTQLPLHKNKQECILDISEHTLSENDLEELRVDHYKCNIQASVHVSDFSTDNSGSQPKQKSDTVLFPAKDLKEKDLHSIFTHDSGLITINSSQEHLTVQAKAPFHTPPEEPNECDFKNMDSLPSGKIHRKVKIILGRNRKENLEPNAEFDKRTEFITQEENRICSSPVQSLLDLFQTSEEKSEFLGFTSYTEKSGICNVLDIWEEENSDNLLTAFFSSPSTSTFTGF

SMILES	pKi
CC(C)N1CCC(Nc2ccc(Cc3c[nH]c(=O)c4cc(-c5c[nH]c6ncccc56)cn34)cc2)CC1 [Example 32, 4-{4-[(1-isopropylpiperidin-4-yl)amino]benzyl}-7-(1H-pyrrolo[2,3-b]pyridin-3-yl)pyrrolo[1,2-a]pyrazin-1(2H)-one]	> 8.00
CN(C)CC(=O)Nc1cccc(Cc2c[nH]c(=O)c3cc(-c4c[nH]c5ncccc45)cn23)c1 [Example 33, N^2,N^2-dimethyl-N-(3-{[1-oxo-7-(1H-pyrrolo[2,3-b]pyridin-3-yl)-1,2-dihydropyrrolo[1,2-a]pyrazin-4-yl]methyl}phenyl)glycinamide]	> 8.00
CN(C)CC(=O)NCc1ccc(Cc2c[nH]c(=O)c3cc(-c4c[nH]c5ncccc45)cn23)cc1 [Example 34, N^2,N^2-dimethyl-N-(4-{[1-oxo-7-(1H-pyrrolo[2,3-b]pyridin-3-yl)-1,2-dihydropyrrolo[1,2-a]pyrazin-4-yl]methyl}benzyl)glycinamide]	> 8.00
CCC(CC)Nc1ccc(Cc2c[nH]c(=O)c3cc(-c4c[nH]c5ncccc45)cn23)cc1 [Example 35, 4-[4-(pentan-3-ylamino)benzyl]-7-(1H-pyrrolo[2,3-b]pyridin-3-yl)pyrrolo[1,2-a]pyrazin-1(2H)-one]	7.00 to 8.00
CN(C)Cc1ccc(Cc2c[nH]c(=O)c3cc(-c4c[nH]c5ncccc45)cn23)cc1 [Example 36, 4-{4-[(dimethylamino)methyl]benzyl}-7-(1H-pyrrolo[2,3-b]pyridin-3-yl)pyrrolo[1,2-a]pyrazin-1(2H)-one]	> 8.00
NCc1ccc(Cc2c[nH]c(=O)c3cc(-c4c[nH]c5ncccc45)cn23)cc1 [Example 37, 4-[4-(aminomethyl)benzyl]-7-(1H-pyrrolo[2,3-b]pyridin-3-yl)pyrrolo[1,2-a]pyrazin-1(2H)-one]	> 8.00
CS(=O)(=O)Nc1ccc(Cc2c[nH]c(=O)c3cc(-c4c[nH]c5ncccc45)cn23)cc1 [Example 38, N-(4-{[1-oxo-7-(1H-pyrrolo[2,3-b]pyridin-3-yl)-1,2-dihydropyrrolo[1,2-a]pyrazin-4-yl]methyl}phenyl)methanesulfonamide]	> 8.00
CC(Nc1ccc(Cc2c[nH]c(=O)c3cc(-c4c[nH]c5ncccc45)cn23)cc1)C1CC1 (centres unmarked) [Example 39, 4-{4-[(1-cyclopropylethyl)amino]benzyl}-7-(1H-pyrrolo[2,3-b]pyridin-3-yl)pyrrolo[1,2-a]pyrazin-1(2H)-one]	> 8.00
CN1CCCC(C(=O)Nc2ccc(Cc3c[nH]c(=O)c4cc(-c5c[nH]c6ncccc56)cn34)cc2)C1 (centres unmarked) [Example 40, 1-methyl-N-(4-{[1-oxo-7-(1H-pyrrolo[2,3-b]pyridin-3-yl)-1,2-dihydropyrrolo[1,2-a]pyrazin-4-yl]methyl}phenyl)piperidine-3-carboxamide]	> 8.00
CN(C)c1cccc(Cc2c[nH]c(=O)c3cc(-c4c[nH]c5ncccc45)cn23)c1 [Example 41, 4-[3-(dimethylamino)benzyl]-7-(1H-pyrrolo[2,3-b]pyridin-3-yl)pyrrolo[1,2-a]pyrazin-1(2H)-one]	> 8.00
O=C(Nc1ccc(Cc2c[nH]c(=O)c3cc(-c4c[nH]c5ncccc45)cn23)cc1)c1ccccc1 [Example 42, N-(4-{[1-oxo-7-(1H-pyrrolo[2,3-b]pyridin-3-yl)-1,2-dihydropyrrolo[1,2-a]pyrazin-4-yl]methyl}phenyl)benzamide]	> 8.00
CS(=O)(=O)Nc1ccc(C(=O)c2c[nH]c(=O)c3cc(-c4c[nH]c5ncccc45)cn23)cc1 [Example 43, N-(4-{[1-oxo-7-(1H-pyrrolo[2,3-b]pyridin-3-yl)-1,2-dihydropyrrolo[1,2-a]pyrazin-4-yl]carbonyl}phenyl)methanesulfonamide]	> 8.00
NC1CCC(NCc2ccc(Cc3c[nH]c(=O)c4cc(-c5c[nH]c6ncccc56)cn34)cc2)CC1 (centres unmarked) [Example 44, 4-(4-{[(4-aminocyclohexyl)amino]methyl}benzyl)-7-(1H-pyrrolo[2,3-b]pyridin-3-yl)pyrrolo[1,2-a]pyrazin-1(2H)-one]	> 8.00
CC(=O)NCc1ccc(Cc2c[nH]c(=O)c3cc(-c4c[nH]c5ncccc45)cn23)cc1 [Example 45, N-(4-{[1-oxo-7-(1H-pyrrolo[2,3-b]pyridin-3-yl)-1,2-dihydropyrrolo[1,2-a]pyrazin-4-yl]methyl}benzyl)acetamide]	< 7.00
